Source: US8163737B2 (Vertex Pharmaceuticals Incorporated, priority 2006, dated 2012)

Key:
endogenous CGRP receptor = endogenous CGRP receptor (Homo sapiens, UniProt O60894+Q16602); test: CGRP functional antagonism using SK-N-MC-BLA (4C10), β-lactamase transcriptional reporter assay; type: cell-based; conditions: SK-N-MC (4C10) cells, inhibition of β-lactamase expression in the presence of 200 pM CGRP
[1] = molecular target: T1, CGRP receptor (SK-N-MC membrane) (Homo sapiens, UniProt O60894+Q16602); test: I125-CGRP binding displacement assay on purified SK-N-MC membrane
T1 construct: Purified SK-N-MC membrane was purchased from Perkin Elmer; purchased Perkin Elmer; host or cells: SK-N-MC membrane
T1 sequence (Q16602 23-461): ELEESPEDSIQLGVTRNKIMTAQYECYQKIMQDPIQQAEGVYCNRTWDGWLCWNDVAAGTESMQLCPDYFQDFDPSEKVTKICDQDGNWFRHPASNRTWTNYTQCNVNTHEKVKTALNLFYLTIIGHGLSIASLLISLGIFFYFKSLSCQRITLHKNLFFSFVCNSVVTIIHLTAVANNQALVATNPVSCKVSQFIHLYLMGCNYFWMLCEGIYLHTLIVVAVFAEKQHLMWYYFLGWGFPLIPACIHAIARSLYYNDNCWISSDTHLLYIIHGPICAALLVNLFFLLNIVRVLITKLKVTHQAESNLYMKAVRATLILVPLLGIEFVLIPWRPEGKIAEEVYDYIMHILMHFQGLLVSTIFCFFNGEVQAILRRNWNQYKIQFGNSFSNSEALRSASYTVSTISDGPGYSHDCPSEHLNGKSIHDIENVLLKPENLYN
T1 sequence (O60894 27-148): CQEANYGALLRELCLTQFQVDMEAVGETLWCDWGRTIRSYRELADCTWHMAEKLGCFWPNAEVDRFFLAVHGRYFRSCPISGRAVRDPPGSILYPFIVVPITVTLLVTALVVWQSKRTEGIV
Protocol: Purified SK-N-MC membrane was purchased from Perkin Elmer. The membrane was thawed quickly and placed on ice. The compounds were diluted with CGRP binding solution (25 mM Tris-HCl, pH7.4, 5 mM MgCl2, 0.1% BSA and 0.05% Tween). The membrane was diluted 1:20 with the binding solution and homogenized with Tissue Matster-50 Homogenizer (Omni International) for 30 sec. The homogenized membrane was added to compounds in the binding solution. […] After 2 hour incubation at room temperature, the reaction was stopped by rapid filtration through 0.5% PEI treated GF/C filter plate (Perkin Elmer) and the filter plate was washed with ice-cold washing solution (50 mM Tris HCl, pH7.4, 5 mM MgCl2 and 0.1% BSA) using cell harvestor (Tomtec). The radioactivity of the filter plates were read on Topcount (Packard). The nonspecific binding was determined in the control reaction where 1 uM unlabelled CGRP was preincubated with the membrane prior to I125-CGRP addition. The total binding was determined in the control reaction of the membrane and I125-CGRP in the absence of compound. The percent displacement of I125-CGRP with compounds was calculated using nonspecific and total binding controls. The curve fitting was carried out using MOD3.

Sequence of endogenous CGRP receptor (Q16602 23-461): as the sequence (Q16602 23-461) above
Sequence of endogenous CGRP receptor (O60894 27-148): as the sequence (O60894 27-148) above

In the case of `CCCCN1CCN(c2ccccc2C2SC(CC(=O)N3CCC(N4CCc5ccccc5NC4=O)CC3)C(=O)N2CCC(C)(C)C)CC1` (stereo not shown) [Compound 365], the IC50 (endogenous CGRP receptor) is reported as less than 1000 nM and the Ki [1] is reported as less than 1000 nM.
With `CC(C)(C)CCN1C(=O)[C@H](CC(=O)N2CCC(n3c(=O)[nH]c4ncccc43)CC2)SC1c1ccccc1N1CCNCC1=O` (stereo partly shown) [Compound 527] the IC50 (endogenous CGRP receptor) was less than 1000 nM and the Ki [1] was less than 1000 nM.
`CC(C)(C)CCN1C(=O)C(CC(=O)N2CCC(N3Cc4ccccc4NC3=O)CC2)SC12CCc1ccccc12` (stereo not shown) [Compound 317] gave an IC50 (endogenous CGRP receptor) of 1000 to 5000 nM and a Ki [1] of less than 1000 nM.
`CC(C)CCN1C(=O)C(CC(=O)N2CCC(N3Cc4ccccc4NC3=O)CC2)SC1c1cccc(F)c1` (stereo not shown) [Compound 67] showed an IC50 (endogenous CGRP receptor) of less than 1000 nM and a Ki [1] of less than 1000 nM.
For `CC(C)CCN1C(=O)C(CC(=O)N2CCC(n3cc(-c4ccccc4)[nH]c3=O)CC2)SC1c1ccc(F)c(F)c1` (stereo not shown) [Compound 127], the IC50 (endogenous CGRP receptor) was 1000 to 5000 nM and the Ki [1] was greater than 5000 nM.
`CC(C)CCN1C(=O)C(CC(=O)N2CCC(n3cc(-c4ccccc4)[nH]c3=O)CC2)SC12CCCCC2` (stereo not shown) [Compound 195] was tested, and the IC50 (endogenous CGRP receptor) was 1000 to 5000 nM and the Ki [1] was greater than 5000 nM.
In the case of `CC(C)(C)CCN1C(=O)[C@H](CC(=O)N2CCC(N3CCc4ccccc4NC3=O)CC2)SC1c1cccc(F)c1N1CCC(N)C1` (stereo partly shown) [Compound 471], the IC50 (endogenous CGRP receptor) is reported as less than 1000 nM and the Ki [1] is reported as less than 1000 nM.
Compound `CN1CCN(c2ccccc2C2SC(CC(=O)N3CCC(n4c(=O)[nH]c5ccccc54)CC3)C(=O)N2CCC(C)(C)C)CC1` (stereo not shown) [Compound 302] has an IC50 (endogenous CGRP receptor) of less than 1000 nM and a Ki [1] of less than 1000 nM.
For `CN(C)CCNc1c(F)cccc1C1S[C@@H](CC(=O)N2CCC(N3CCc4ccccc4NC3=O)CC2)C(=O)N1CCC(C)(C)C` (stereo partly drawn) [Compound 513, 3-(1-(2-((5S)-2-(2-(2-(Dimethylamino)ethylamino)-3-fluorophenyl)-3-(3,3-dimethylbutyl)-4-oxothiazolidin-5-yl)acetyl)piperidin-4-yl)-4,5-dihydro-1H-benzo[d][1,3]diazepin-2(3H)-one], the IC50 (endogenous CGRP receptor) was less than 1000 nM and the Ki [1] was less than 1000 nM.
`CC(C)CN1C(=O)C(CC(=O)N2CCC(N3Cc4ccccc4NC3=O)CC2)SC1c1ccccc1` (stereo not shown) [Compound 9] was tested, and the IC50 (endogenous CGRP receptor) was less than 1000 nM and the Ki [1] was less than 1000 nM.
`CCCCN1C(=O)C(CC(=O)N2CCC(N3Cc4ccccc4NC3=O)CC2)SC1c1ccccc1` (stereo not shown) [Compound 107] gave an IC50 (endogenous CGRP receptor) of less than 1000 nM and a Ki [1] of less than 1000 nM.
`CC(C)(C)CCN1C(=O)C(CC(=O)N2CCC(N3Cc4ccccc4NC3=O)CC2)SC1c1ccccc1N1CCOCC1` (stereo not shown) [Compound 160] showed an IC50 (endogenous CGRP receptor) of less than 1000 nM and a Ki [1] of less than 1000 nM.
With `CC(C)(C)CCN1C(=O)C(CC(=O)N2CCC(N3CCc4ccccc4NC3=O)CC2)SC1c1cccc(F)c1F` (stereo not shown) [Compound 48] the IC50 (endogenous CGRP receptor) was less than 1000 nM and the Ki [1] was less than 1000 nM.
`CC(C)(C)CCN1C(=O)[C@H](CC(=O)N2CCC(N3CCc4ccccc4NC3=O)CC2)S[C@H]1c1cccc(F)c1C1CCNCC1` [Compound 553, 3-(1-(2-((2S,5S)-2-(3-fluoro-2-(piperidin-4-yl)phenyl)-3-(3,3-dimethylbutyl)-4-oxothiazolidin-5-yl)acetyl)piperidin-4-yl)-4,5-dihydro-1H-benzo[d][1,3]diazepin-2(3H)-one] was tested, and the IC50 (endogenous CGRP receptor) was 1000 to 5000 nM and the Ki [1] was less than 1000 nM.
Work on `O=C(CC1SC(c2ccccc2)N(Cc2ccc(F)cc2)C1=O)N1CCC(N2Cc3ccccc3NC2=O)CC1` (stereo not shown) [Compound 208] yielded an IC50 (endogenous CGRP receptor) of less than 1000 nM and a Ki [1] of less than 1000 nM.
In the case of `CC(C)CCN1C(=O)C(CC(=O)N2CCC(N3Cc4ccccc4NC3=O)CC2)SC1c1ccc(C#N)cc1` (stereo not shown) [Compound 63], the IC50 (endogenous CGRP receptor) is reported as less than 1000 nM and the Ki [1] is reported as less than 1000 nM.
Compound `CC(C)(C)CCN1C(=O)[C@H](CC(=O)N2CCC(n3c(=O)[nH]c4ncccc43)CC2)S[C@H]1c1cccc(F)c1C1CCNCC1` [Compound 555] has an IC50 (endogenous CGRP receptor) of 1000 to 5000 nM and a Ki [1] of less than 1000 nM.
`CC(C)(C)CCN1C(=O)[C@H](CC(=O)N2CCC(n3c(=O)[nH]c4ncccc43)CC2)SC1c1ccccc1C1CCNCC1` (stereo partly shown) [Compound 528] was tested, and the IC50 (endogenous CGRP receptor) was less than 1000 nM and the Ki [1] was less than 1000 nM.
Work on `COc1ccccc1C1SC(CC(=O)N2CCC(N3Cc4ccccc4NC3=O)CC2)C(=O)N1CCC(C)C` (stereo not shown) [Compound 80] yielded an IC50 (endogenous CGRP receptor) of less than 1000 nM and a Ki [1] of less than 1000 nM.
Work on `CC(C)(C)CCN1C(=O)[C@H](CC(=O)N2CCC(N3CCc4ccccc4NC3=O)CC2)SC1c1ccccc1N1CCNCC1=O` (stereo partly shown) [Compound 511] yielded an IC50 (endogenous CGRP receptor) of less than 1000 nM and a Ki [1] of less than 1000 nM.
Compound `CC(C)(C)CCN1C(=O)[C@H](CC(=O)N2CCC(N3CCc4ccccc4NC3=O)CC2)SC1c1ccn(C2CCN(C(=O)OC(C)(C)C)CC2)n1` (stereo partly shown) [Compound 490] has an IC50 (endogenous CGRP receptor) greater than 5000 nM and a Ki [1] of less than 1000 nM.
In the case of `CCOCCCN1C(=O)C(CC(=O)N2CCC(N3Cc4ccccc4NC3=O)CC2)SC1c1ccccc1` (stereo not shown) [Compound 159], the IC50 (endogenous CGRP receptor) is reported as less than 1000 nM and the Ki [1] is reported as less than 1000 nM.
For `CN1CCN(c2ccccc2C2SC(CC(=O)N3CCC4(CC3)CC(=O)Nc3ccccc3O4)C(=O)N2CCC(C)(C)C)CC1` (stereo not shown) [Compound 328], the IC50 (endogenous CGRP receptor) was less than 1000 nM and the Ki [1] was less than 1000 nM.
